Laboratory results: patent US8309140B2, “Effect of porcine sheath proteins on the regeneration activity of periodontal ligament” (priority 2005, dated 2012)

Tests used:
[1] = tested on: human periodontal ligament (HPDL) cells; assay: ALP inducing activity of HPDL cells on cell culture system; type: cell-based
Excerpt: Human periodontal ligament (HPDL) cells were obtained according to the method of Somerman et al., (1988) from healthy premolars which were extracted from the patients for orthodontic reasons. The cells were precultured for 4-6 passages with a-MEM medium to establish the primary cell line. The cells were maintained in the alpha modification of Eagle's medium (α-MEM; Life Technologies, Grand Island, N.Y., USA) containing 10% fetal bovine serum (FBS; Asahi Technoglass, Chiba, Japan) and 1% antibiotics (100 U/ml of Penicillin-G and 100 μg/ml of Streptomycin sulfate; Gibco BRL, Grand Island, N.Y., USA) at 37° C. in a humidified 5% CO2 atmosphere. The ST2 cells (Riken Cell Bank, Tsukuba, Japan), an osteoblast-like mouse bone marrow stromal cell line, were cultured under the same conditions.
HPDL cells were distributed in 96-well plates at a density of approximately 5×10^5 cells per a well and incubated for 24 h. The growth medium was then changed to contain 10 nM of 1α-25dihydroxy-Vitamin D3 (CALBIOCHEM, La Jolla, Calif.) and 50 μg/ml (final concentration) of fractionated enamel protein samples or synthesized peptides dissolved in ultrapure water. After 96 additional hours of incubation, the cells were washed once with PBS, and ALP activity was determined after a 10 min incubation at 37° C. in 10 mM p-nitrophenylphosphate (substrate) in 100 mM 2-amino-2-methyl-1,3-propanediol-HCl buffer (pH 10.0) containing 5 mM MgCl2. After adding 0.2 M NaOH, which stopped the reaction, the absorbance at 405 nm was read on a plate reader.
HPDL cells of approximately 5×10^5 cells per well were distributed in 96-well plates and incubated for 24 h. The growth medium was then changed to contain 10 nM of 1α-25dihydroxy-Vitamin D3 and 50 μg/ml (final concentration) of purified sheath protein or synthesized peptide. After 96 additional hours of incubation, ALP activity was determined using p-nitrophenylphosphate as a substrate.
The bioactivities of these synthetic peptides were tested their cytodifferentiation activity of HPDL cells and ST2 cells by determination of increasing ALP inducing activity on cell culture system. When these peptides applied in cell culture system, the concentration of their peptides was employed around 1 ng/ml. In the case of TGF-1, the concentration was 10 ng/ml.
Normal human periodontal ligament fibroblasts were maintained in an α-minimal essential medium (α-MEM) containing 10% fetal bovine serum, either with or without 10 nM 1α-25dihydroxy-vitamin D3 and 1% antibiotics (100 U/mL of penicillin G and 100 μg/mL of streptomycin sulfate) at 37° C. in a humidified atmosphere of air containing 5% CO2. Another cell line, ST2 cells, was obtained from an osteoblast-like mouse bone marrow stromal cell line. These cells were cultured in the same conditions as those described above.
The ALP inducing activities of synthetic peptides using the cell culture of HPDL cells and ST2 cells were examined. The HPDL cells were distributed in 96-well plates at a density of approximately 5×10^5 cells per well and incubated for 24 h. The medium was then changed to α-MEM containing 10 nM of 1α-25dihydroxy-vitamin D3 and either synthetic peptides or growth factors dissolved in ultra-pure water. After 96 h of incubation, the cells were washed once with phosphate-buffered saline, and 10 mM ρ-nitrophenylphosphate in 100 mM 2-amino-2-methel-1,3-propanediol-HCl buffer (pH 10.0) containing 5 mM MgCl2 was added. The ALP activity was determined after 10 min incubation at 37° C. and the absorbance at 405 nm was read using a plate reader, after adding 0.2 M NaOH to stop the reaction. […] When the synthetic peptides were applied in the cell culture system, their final concentrations were 25 or 50 μg/mL. A TGF-β1 receptor inhibitor (SB431542, 10 μM) was applied to the HPDL cell culture system to examine their influence relative to the ALP inducing activity of the synthetic peptides.

[2] = tested on: osteopontin, osteocalcin and bone sialoprotein expression in HPDL cells; assay: Semi-quantitative PCR of mineralized tissue markers in cultured HPDL cells; type: cell-based, human; settings: 4, 14 and 28 d cultured HPDL cells; H-2 25 μg/mL; TGF-β1 1 ng/mL
Excerpt: Total RNA was extracted using RNAzol™ B from cultured HPDL cells. […] The PCR primers were designed based upon the Homo sapiens mRNA sequences. The primer pairs were as follows: osteopontin, 5′-[…]-3′ (SEQ ID NO: 45) and 5′-[…] TGAA-3′ (SEQ ID NO: 46) (301 bp); osteocalcin, 5′-[…]-3′ (SEQ ID NO: 47) and 5′-[…] GAGGT-3′ (SEQ ID NO: 48) (304 bp); and bone sialo protein, 5′-[…]-3′ (SEQ ID NO: 49) and 5′-[…]-3′ (SEQ ID NO: 50) (448 bp). A primer set amplifying glyceraldehyde-3phosphate dehydrogenase mRNA was used as a control.
The cDNAs generated from HPDL cells […] the DNA Master SYBR Green I kit and protocol and a LightCycler instrument. The relative amount of each mRNA was determined at 50% levels of PCR product, and normalized with use of the relative amount of GAPDH mRNA.

[3] = tested on: HPDL cells; assay: Mineralization activity of HPDL cells (alizarin red S staining, calcium content); type: cell-based, human
Description: The HPDL cells were plated in 24-well plates at an initial density of 1×10^5 cells/well. After 24 h of incubation, the medium was replaced with growth medium containing 50 μM ascorbic acid, 10 mM β-glycerophosphate, and 10 nM 1α,25-dihydroxyvitamin D3 (differentiation medium) and 1 μg/ml of samples. The medium was changed every 72 h. The cells were maintained for 30 days and then the medium was discarded.
The compartments of cells were fixed in 100% methanol, stained with alizarin red S for 10 min, then washed with ultrapure water and photographed to examine the biomineralization activity. The staining solution was 1% alizarin red S (sodium alizarin sulfonate) (Sigma) dissolved in ultrapure water and adjusted to pH 6.4 with 0.1N ammonium hydroxide.
For measuring the calcium content, the compartments of cells were dissolved by 0.5N hydrochloric acid. The resulting solution was measured by a Calcium C-test kit and protocol (Wako Pure Chemical Industries Ltd, Osaka, Japan). The absorbance at 570 nm was read on a plate reader.
The HPDL cells were plated in 24-well plates at an initial density of 1×10^5 cells/well. After 24 h of incubation, the medium was replaced with growth medium containing 50 μM ascorbic acid, 10 mM β-glycerophosphate, and 10 nM 1α,25-dihydroxyvitamin D3 (differentiation medium) and 1 μg/ml of samples. The medium was changed every 72 h and the cells were maintained for 30 days. The biomineralization activity was examined by staining with alizarin red S and measuring calcium content.
The HPDL cells were plated in six-well plates at an initial density of 1×10^5 cells per well. […]
For Alizarin Red S staining, the compartments of 28 d cultured cells were fixed in 100% methanol, stained with Alizarin Red S for 10 min, then washed with ultra-pure water and photographed. […] The resulting solution was measured using a Calcium C-test kit and protocol. The absorbance at 570 nm was read with a plate reader. […]

“SDKPPKPELPGVDF (14 aa from 144 to 157 in sequence 11; listed as Homo sapiens) [H-2]” was tested, and the “ALP inducing activity of HPDL cells (Example 4)” value ([1]; peptides 50 μg/mL, TGF-β1 1 ng/mL, BMP-2 1 μg/mL, 10 nM 1α-25dihydroxy-vitamin D3, 96 h) was “highest ALP inducing activity”, the “ALP activity of HPDL cells (human synthetic peptides, Example 3)” value ([1]; peptides around 1 ng/ml, TGF-β1 10 ng/ml) was “enhanced dose dependently” and the “expressions of osteopontin, osteocalcin and bone sialoprotein” value [2] was “closely similar to those of TGF-β1”. For the same sequence, the “mineralization by HPDL cells (Example 4)” value ([3]; 28 d cell culture, H-2 25 μg/mL, TGF-β1 1 ng/mL) was “induced mineralization” and the “induction of mineralization of HPDL cells (Example 3)” value ([3]; 30 days culture, 1 μg/ml of samples, differentiation medium) was “enhanced the induction of mineralization”.
